Structures can show the parent of a compound that is named as a salt.
melting point | Compound
270 to 271 °C | Cc1ccccc1C1(CN)C2CC3CC(C2)CC1C3 (stereo not shown) (as salt: hydrochloride)
242 to 243 °C | Cc1cccc(C2(CN)C3CC4CC(C3)CC2C4)c1 (stereo not shown) (as salt: hydrochloride) [Example 2, 2-(3-Methylphenyl)-2-adamantanemethanamine hydrochloride]
253 to 255 °C | NCC1(c2ccccc2)C2CC3CC(C2)CC1C3 (stereo not shown) (as salt: hydrochloride) [Example 3, 2-Phenyl-2-adamantanemethanamine hydrochloride]
> 300 °C | NCC1(c2ccc(Cl)cc2)C2CC3CC(C2)CC1C3 (stereo not shown) (as salt: hydrochloride) [Example 7, 2-(4-Chlorophenyl)-2-adamantanemethanamine hydrochloride]
255 to 257 °C | NCC1(c2cccs2)C2CC3CC(C2)CC1C3 (stereo not shown) (as salt: hydrochloride) [Example 10, 2-(2-Thienyl)-2-adamantanemethanamine hydrochloride]

The next lines start with the molecule.

Compound | melting point
CCc1cccc(C2(CN)C3CC4CC(C3)CC2C4)c1 (stereo not shown) (as salt: hydrochloride) [Example 1, 2-(3-Ethylphenyl)-2-adamantanemethanamine hydrochloride] | 89 to 90 °C
Cc1ccc(C2(CN)C3CC4CC(C3)CC2C4)cc1 (stereo not shown) (as salt: hydrochloride) [Example 4, 2-(4-Methylphenyl)-2-adamantanemethanamine hydrochloride] | 261 to 263 °C
NCC1(c2ccc(F)cc2)C2CC3CC(C2)CC1C3 (stereo not shown) (as salt: hydrochloride) [Example 6, 2-(4-Fluorophenyl)-2-adamantanemethanamine hydrochloride] | 262 to 263 °C
COc1ccc(C2(CN)C3CC4CC(C3)CC2C4)cc1 (stereo not shown) (as salt: hydrochloride) [Example 8, 2-(4-Methoxyphenyl)-2-adamantanemethanamine hydrochloride] | 234 to 235 °C
NCC1(c2ccc(C(F)(F)F)cc2)C2CC3CC(C2)CC1C3 (stereo not shown) (as salt: hydrochloride) [Example 9, 2-(4-Trifluoromethylphenyl)-2-adamantanemethanamine hydrochloride] | 279 to 281 °C
